From patent US20100048732A1, “Method of mediating Airway Smooth Muscle Construction Due to Airway Irritation” (priority 2006, published 2010)
Starred links: 1 amine or outer side, 2 acyl side, 3 side chain; linkers in the order of their positions; H or OH if unused. Positions of bridges follow the written chain, without caps; N, C: chain ends. Non-standard residues stand in square brackets, D forms with d. Residues, ends and D or L forms follow the SMILES beside them. No end group written: not given here. *: point of attachment. X2 = CN(/C(=C\c1ccc(O)cc1)C(=O)[*:2])[*:1]; X1 = CCCCCc1ccccc1CCC(=O)*

How the values were obtained:
[1] = test system: bradykinin induced bronchoconstriction; conditions: asthmatics; cited from earlier work
[2] = test system: cholinergic nerve mediated contractions, guinea pig tracheal rings; test: Relaxation of cholinergic nerve mediated contractions in guinea pig tracheal rings; format: cell-based; conditions: clinically relevant concentrations, FIG. 1, FIG. 3C-D
Description: To distinguish between the two possibilities, intravenous anesthetics were evaluated for their effects on attenuating bronchoconstriction induced by activation of the cholinergic nerves (liberating acetylcholine). […] (FIG. 1.)
(§1) Propofol is known to have preferential protective airway effects during intubation compared to other intravenous anesthetics (3, 4). To determine if two other commonly used intravenous anesthetics have similar protective airway effects on contractile challenges, etomidate and ketamine were evaluated to determine their ability to relax airway smooth muscle contraction induced by NANC nerve stimulation (FIGS. 3A and B), cholinergic nerve stimulation (FIGS. 3C and D), and exogenous addition of substance P (FIGS. 3E and F) to isolated guinea pig tracheal rings in organ baths.

[3] = test system: NANC contractions, epithelium-denuded guinea pig tracheal rings; test: Relaxation of NANC (C fiber, neurally liberated tachykinin) contractions in guinea pig tracheal rings; format: cell-based; conditions: clinically relevant concentrations, FIG. 2, FIG. 3A-B
Description: (§2) Substance P is an endogenous tachykinin released in airways by C fibers during irritation of the airway.
as §1

[4] = test system: substance P contraction, guinea pig tracheal rings; test: Relaxation of substance P-induced contraction in guinea pig tracheal rings; format: cell-based; conditions: FIG. 2, FIG. 3E-F, FIG. 8
Description: as §2, §1
Propofol's effect as an anesthetic is modulated by an allosteric potentiation of GABA at GABAA receptors in the brain. However, we are unaware of any report that GABAA receptors have been found on airway smooth muscle.

GABAA receptors = conditions: FIG. 10
Description: (§3) (FIG. 9.) To determine if the mechanism of propofol's relaxation of a tachykinin response was mediated by GABAA receptors, the ability of an antagonist of GABAA receptors should inhibit propofol's response was evaluated. […] (FIG. 10.)

[5] = test system: acetylcholine-induced contractions, isolated rings of guinea pig trachea; conditions: isolated guinea pig tracheal rings; clinically significant/relevant concentrations; FIG. 1
Source text: Intravenous anesthetics were compared for their ability to relax airway smooth muscle contractions in isolated rings of guinea pig trachea in response to acetylcholine.

[6] = test system: histamine induced contractions, guinea pig tracheal rings; conditions: within clinically relevant concentrations, FIG. 4
Description: (§5) To determine if propofol and thiopental have the ability to relax histamine or endothelial induced contractions, propofol and thiopental were evaluated at clinical and supra-clinical concentrations to determine their ability to relax histamine or endothelin-1 induced contractions in guinea pig tracheal rings.

[7] = test system: endothelin-1 induced contractions, guinea pig tracheal rings; conditions: within clinically relevant concentrations, FIG. 4
Description: as §5

[8] = test system: substance P contraction, human tracheal rings; test: Substance P contraction of human tracheal rings in organ baths and its relaxation; format: cell-based; conditions: human tracheal rings in organ baths; for relaxation of substance P contraction in human tracheal rings: cumulative concentrations, FIG. 5, FIG. 9
Description: as §3

[9] = test system: NK1-induced contraction, guinea pig tracheal rings; conditions: guinea pig tracheal rings stimulated with acetyl-substance P; FIG. 6A
Source text: (§4) Guinea pig tracheal rings stimulated with acetyl-substance P to produce an NK1-induced contraction (FIG. 6A) and with neurokinin A to produce an NK2-induced contraction (FIG. 6B).

[10] = test system: NK2-induced contraction, guinea pig tracheal rings; conditions: guinea pig tracheal rings stimulated with neurokinin A; FIG. 6B
Source text: as §4

[11] = test system: L-type calcium channels, intracellular calcium changes, inositol phosphate synthesis in airway smooth muscle; conditions: above clinically achieved concentrations; cited from earlier work
[12] = test system: contractile responses from acetylcholine, histamine, and endothelin in airway tissues; conditions: airway tissues from humans and animal models; cited from earlier work
[13] = test system: permeabilized canine tracheal smooth muscle cells; conditions: absence or presence of muscarinic receptor activation, propofol 270 μM; cited from earlier work
[14] = test system: methacholine, histamine-induced (neural component) or vagal nerve-induced bronchoconstriction; conditions: neural component of histamine-induced, or vagal nerve-induced bronchoconstriction; cited from earlier work
[15] = test system: vagal nerve induced bronchospasm; conditions: sheep; delivery via the bronchial artery; cited from earlier work
[16] = test system: methacholine induced bronchoconstriction; conditions: sheep; delivery via the bronchial artery; cited from earlier work
guinea pig airway rings = conditions: cited from earlier work

CCCCCc1ccccc1CCC(=O)NC1C(=O)N(C)/C(=C\c2ccc(O)cc2)C(=O)NC(CC(C)C)C(=O)NC(Cc2ccccc2)C(=O)NC(C(C)O)C(=O)NC(CC(N)=O)C(=O)NC(CO)C(=O)OC1C (stereo not shown) [FK224] (X1-T[X2]LFTNS; ester 1-C; configuration not given here)
effect on bradykinin induced bronchoconstriction [1]: attenuated bradykinin induced bronchoconstriction

CCOC(=O)c1cncn1[C@H](C)c1ccccc1 [etomidate]
relaxation of cholinergic nerve mediated contractions [2]: failed to relax
attenuation/relaxation of NANC contractions (neurally liberated tachykinins) [3]: failed to relax
attenuation/relaxation of substance P (exogenous tachykinin) contraction [4]: failed to relax

COc1ccc(-c2ccc(=N)n(CCCC(=O)O)n2)cc1 [Gabazine]
reversal of propofol mediated relaxation of a substance P contraction (GABAA receptors): able to reverse propofol mediated relaxation

CCCC(C)C1(CC)C(=O)NC(=S)NC1=O (stereo not shown) [thiopental]
relaxation of acetylcholine-induced contractions [5]: dose-dependently relaxed
relaxation of histamine induced contraction [6]: neither anesthetic effected the spontaneous relaxation
relaxation of endothelin-1 induced contraction [7]: neither anesthetic effected the spontaneous relaxation

CNC1(c2ccccc2Cl)CCCCC1=O (stereo not shown) [ketamine]
relaxation of cholinergic nerve mediated contractions [2]: failed to relax
attenuation/relaxation of NANC contractions (neurally liberated tachykinins) [3]: failed to relax
attenuation/relaxation of substance P (exogenous tachykinin) contraction [4]: failed to relax

Substance P (RPKPQQFFGLM-NH2; ends and bridges not checked; UniProt P20366 58-68, looked up) [endogenous tachykinin released in airways by C fibers during irritation of the airway]
contraction of human tracheal rings ([8]; FIG. 5): dose-dependently contracted

CC(C)c1cccc(C(C)C)c1O [propofol, 2,6-diisopropylphenol]
relaxation of cholinergic nerve mediated contractions [2]: failed to relax
attenuation/relaxation of NANC contractions (neurally liberated tachykinins) [3]: more effective than thiopental
attenuation/relaxation of substance P (exogenous tachykinin) contraction [4]: more effective than thiopental
relaxation of substance P contraction in human tracheal rings [8]: dose-dependently relaxed
relaxation of NK1-induced contraction [9]: much less effective
relaxation of NK2-induced contraction [10]: significantly relaxed
relaxation of acetylcholine-induced contractions [5]: without effect
relaxation of histamine induced contraction [6]: neither anesthetic effected the spontaneous relaxation
relaxation of endothelin-1 induced contraction [7]: neither anesthetic effected the spontaneous relaxation
propofol concentration needed for effects on L-type calcium channels, intracellular calcium or inositol phosphate signaling [11]: > 100 µM
propofol concentration attenuating contractile responses from acetylcholine, histamine, endothelin [12]: 100 to 300 µM
calcium sensitivity [13]: not effected
propofol concentration attenuating bronchoconstriction in dogs [14]: 20 mg/mL
propofol dose attenuating vagal nerve induced bronchospasm [15]: 0.3 mg/min
propofol dose attenuating methacholine induced bronchoconstriction [16]: 3 mg/min

NCc1cc(=O)[nH]o1 [muscimol]
attenuation/relaxation of substance P (exogenous tachykinin) contraction [4]: dose-dependently relaxed
relaxation of substance P contraction in human tracheal rings [8]: dose dependently relaxed
effect on acetylcholine-induced contraction (guinea pig airway rings): failed to show an effect
effect on basal tone (guinea pig airway rings): failed to show an effect
